Assay results from patent US20080293712A1, “Benzo[C][2,7]Naphtyridine Derivatives, Methods of Making Thereof and Methods of Use Thereof” (WYETH, priority 2007, published 2008).
Read-outs that look alike come from different tables or passages of the source.

Tests used:
Format in all cases: biochemical
PDK-1 = target: T1, PDK-1 (Homo sapiens, UniProt O15530); test: PDK-1 kinase inhibition ELISA assay (phosphorylation of His6-tagged SGK1 S422D by PDK-1)
T1 sequence (O15530 1-556): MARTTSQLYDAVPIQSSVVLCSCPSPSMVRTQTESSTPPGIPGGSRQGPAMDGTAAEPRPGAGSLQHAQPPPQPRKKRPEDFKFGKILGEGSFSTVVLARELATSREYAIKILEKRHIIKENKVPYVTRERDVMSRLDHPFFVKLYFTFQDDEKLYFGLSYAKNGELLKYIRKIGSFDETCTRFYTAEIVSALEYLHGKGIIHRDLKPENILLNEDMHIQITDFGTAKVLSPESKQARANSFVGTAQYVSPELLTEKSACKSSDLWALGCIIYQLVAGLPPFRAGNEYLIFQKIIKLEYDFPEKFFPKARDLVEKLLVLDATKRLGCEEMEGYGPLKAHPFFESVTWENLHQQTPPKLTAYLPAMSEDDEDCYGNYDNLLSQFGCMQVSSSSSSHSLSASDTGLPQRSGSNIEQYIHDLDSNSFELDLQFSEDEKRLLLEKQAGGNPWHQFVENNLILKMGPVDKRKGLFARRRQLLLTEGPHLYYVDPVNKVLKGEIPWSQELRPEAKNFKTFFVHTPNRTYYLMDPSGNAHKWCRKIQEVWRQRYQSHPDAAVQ

PKA = PKA (Homo sapiens, UniProt P17612); test: PKA kinase inhibition, Z'-LYTE FRET assay
S6K = S6K (Homo sapiens, UniProt P23443); test: S6K kinase inhibition, Z'-LYTE FRET assay; conditions: 100 μM ATP
Chain of S6K (P23443 whole entry): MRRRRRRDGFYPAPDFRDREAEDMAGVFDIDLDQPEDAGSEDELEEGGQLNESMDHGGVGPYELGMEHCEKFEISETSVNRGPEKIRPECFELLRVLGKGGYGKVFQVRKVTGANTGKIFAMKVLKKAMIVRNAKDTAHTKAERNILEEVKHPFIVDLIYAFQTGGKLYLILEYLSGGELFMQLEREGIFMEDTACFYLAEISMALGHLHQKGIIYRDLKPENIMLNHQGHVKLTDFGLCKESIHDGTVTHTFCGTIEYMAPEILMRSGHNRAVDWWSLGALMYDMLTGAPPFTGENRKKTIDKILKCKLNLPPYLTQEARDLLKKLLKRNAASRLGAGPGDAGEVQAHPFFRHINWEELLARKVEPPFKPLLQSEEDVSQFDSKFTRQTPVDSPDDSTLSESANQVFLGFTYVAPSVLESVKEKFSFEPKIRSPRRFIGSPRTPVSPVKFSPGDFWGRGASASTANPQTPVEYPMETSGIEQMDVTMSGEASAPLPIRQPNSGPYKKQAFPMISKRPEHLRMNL
Excerpt: The ability of illustrative Benzo[c][2,7]naphthyridine Derivatives to inhibit PKA, Akt1, S6K in vitro can be determined using a Fluorescence Resonance Energy Transfer (FRET) assay, such as a Z′-LYTE™ Kinase Assay Platform, commercially available from Invitrogen (c.f. Rodems et al., ASSAY Drug Devel. Technol. 1:9-19 (2002) and Zhang et al., J. Biomol. Screen. 4:67-73 (1999)). Z′-Lyte™ assay is an in vitro FRET-based assay that utilizes differential sensitivity of phosphorylated and non-phosphorylated peptides to proteolytic cleavage. The peptide substrate (also available from Invitrogen for each of PKA, Akt1 and S6K) is labeled with two different fluorophores, a fluorescence donor at one end of the peptide and a fluorescence acceptor at the other end of the peptide. In the primary kinase reaction, the kinase phosphorylates the peptide substrate in the presence of ATP. In the secondary reaction, a site-specific protease recognizes and cleaves non-phosphorylated peptides, but not phosphorylated peptides. Cleavage disrupts FRET between the donor and acceptor fluorophores on the peptide, whereas uncleaved phosphorylated peptides maintain FRET. Based on a formula that uses the ratio of donor emission (at 460 nm) to acceptor emission (at […]) after excitation of the donor fluorophore at 400 nm, the extent of phosphorylation of the peptide substrates is calculated. IC50 values of illustrative Benzo[c][2,7]naphthyridine Derivatives, shown in Table 12, are calculated using LSW Data Analysis package add-in for Excel (Microsoft).

[1] = PDK-1 ELISA, Table 11, read-out: Average IC50

For `COc1cc2ncc3c(N)nc(-c4cncc(OC[C@@H](N)CN5CCNC(=O)C5)c4)cc3c2cc1OC` [Ib-37, 4-((2S)-2-amino-3-{[5-(4-amino-8,9-dimethoxybenzo[c]-2,7-naphthyridin-2-yl)pyridin-3-yl]oxy}propyl)piperazin-2-one], the IC50 (PDK-1; [1]) was 18 nM, the IC50 (PKA; 20 μM ATP) was 850 nM and the IC50 (PKA; 100 μM ATP) was greater than 2000 nM. The IC50 (S6K) was 523 to 821 nM.

For `COc1cc2ncc3c(N)nc(-c4cncc(OC[C@@H](N)CN5CCOCC5)c4)cc3c2cc1OC` [Ib-45, 2-(5-{[(2S)-2-amino-3-morpholin-4-ylpropyl]oxy}pyridin-3-yl)-8,9-dimethoxybenzo[c]-2,7-naphthyridin-4-amine], the IC50 (PDK-1; [1]) was 25 nM, the IC50 (PKA; 20 μM ATP) was 650 nM and the IC50 (PKA; 100 μM ATP) was greater than 2000 nM. The IC50 (S6K) was 725 nM.

`COc1cc2ncc3c(N)nc(-c4cncc(OC[C@@H](N)CN(C)Cc5ccccc5)c4)cc3c2cc1OC` [Ib-27, (2S)-3-{[5-(4-amino-8,9-dimethoxybenzo[c]-2,7-naphthyridin-2-yl)pyridin-3-yl]oxy}-N1-benzyl-N1-methylpropane-1,2-diamine] showed an IC50 (PDK-1; [1]) of 6 nM, an IC50 (PKA; 100 μM ATP) of 110 to 217 nM and an IC50 (S6K) of 37 to 43 nM.

`COc1cc2ncc3c(N)nc(-c4cncc(OC[C@@H](N)CNc5cccc(F)c5)c4)cc3c2cc1OC` [Ib-36, (2S)-3-{[5-(4-amino-8,9-dimethoxybenzo[c]-2,7-naphthyridin-2-yl)pyridin-3-yl]oxy}-N1-(3-fluorophenyl)propane-1,2-diamine] was tested, and the IC50 (PDK-1; [1]) was 4 nM, the IC50 (PKA; 20 μM ATP) was less than 32 nM and the IC50 (PKA; 100 μM ATP) was 223 nM. The IC50 (S6K) was 30 to 133 nM.

In the case of `COc1cc2ncc3c(N)nc(-c4cncc(OC[C@@H](N)Cc5ccc(Cl)c(Cl)c5)c4)cc3c2cc1OC` [Ib-44, 2-(5-{[(2S)-2-amino-3-(3,4-dichlorophenyl)propyl]oxy}pyridin-3-yl)-8,9-dimethoxybenzo[c]-2,7-naphthyridin-4-amine], the IC50 (PDK-1; [1]) is reported as 6 nM, the IC50 (PKA; 20 μM ATP) is reported as less than 32 nM and the IC50 (S6K) is reported as 19 nM.

In the case of `COc1cc2ncc3c(N)nc(-c4cncc(OC[C@@H](N)Cc5cccc(Cl)c5)c4)cc3c2cc1OC` [Ib-29, 2-(5-{[(2S)-2-amino-3-(3-chlorophenyl)propyl]oxy}pyridin-3-yl)-8,9-dimethoxybenzo[c]-2,7-naphthyridin-4-amine], the IC50 (PDK-1; [1]) is reported as 8 nM and the IC50 (S6K) is reported as 76 nM.

Work on `COc1cc2ncc3c(N)nc(-c4cncc(OC[C@@H](N)Cc5ccc(F)cc5)c4)cc3c2cc1OCc1ccccc1` [Ia-1, 2-(5-{[(2S)-2-Amino-3-(4-fluorophenyl)propyl]oxy}pyridin-3-yl)-9-(benzyloxy)-8-methoxybenzo[c]-2,7-naphthyridin-4-amine] yielded an IC50 (PDK-1; [1]) greater than 100 nM, an IC50 (PKA; 100 μM ATP) greater than 2000 nM and an IC50 (S6K) greater than 2000 nM.

`COc1cc2ncc3c(N)nc(-c4cncc(OC[C@@H](N)CN5CCc6ccccc65)c4)cc3c2cc1OC` [Ib-46, 2-(5-{[(2S)-2-amino-3-(2,3-dihydro-1H-indol-1-yl)propyl]oxy}pyridin-3-yl)-8,9-dimethoxybenzo[c]-2,7-naphthyridin-4-amine] was tested, and the IC50 (PDK-1; [1]) was 8 nM, the IC50 (PKA; 20 μM ATP) was less than 32 nM and the IC50 (PKA; 100 μM ATP) was 179 nM. It also gave an IC50 (S6K) of 65 nM.

In the case of `COc1cc2ncc3c(N)nc(-c4cncc(O[C@@H]5CCCNC5)c4)cc3c2cc1OC` [Ib-33, 8,9-dimethoxy-2-{5-[(3R)-piperidin-3-yloxy]pyridin-3-yl}benzo[c]-2,7-naphthyridin-4-amine], the IC50 (PDK-1; [1]) is reported as 8 nM, the IC50 (PKA; 100 μM ATP) is reported as 368 nM and the IC50 (S6K) is reported as 138 nM.

For `COc1cc2ncc3c(N)nc(-c4cncc(OC[C@@H](N)Cc5cccc(C(F)(F)F)c5)c4)cc3c2cc1OC` [Ib-24, 2-[5-({(2S)-2-amino-3-[3-(trifluoromethyl)phenyl]propyl}oxy)pyridin-3-yl]-8,9-dimethoxybenzo[c]-2,7-naphthyridin-4-amine], the IC50 (PDK-1; [1]) was 13 nM, the IC50 (PKA; 100 μM ATP) was 198 to 219 nM and the IC50 (S6K) was 169 to 194 nM.

Work on `COCCN(C)C[C@H](N)COc1cncc(-c2cc3c(cnc4cc(OC)c(OC)cc43)c(N)n2)c1` [Ib-38, (2S)-3-{[5-(4-amino-8,9-dimethoxybenzo[c]-2,7-naphthyridin-2-yl)pyridin-3-yl]oxy}-N1-(2-methoxyethyl)-N1-methylpropane-1,2-diamine] yielded an IC50 (PDK-1; [1]) of 9 nM, an IC50 (PKA; 20 μM ATP) of 210 nM and an IC50 (PKA; 100 μM ATP) of 1040 nM. The IC50 (S6K) was 213 to 365 nM.

`COc1cc2ncc3c(N)nc(-c4cncc(OC[C@@H]5CN(c6cccc(F)c6)C(=O)N5)c4)cc3c2cc1OC` [Ib-35, (4S)-4-({[5-(4-amino-8,9-dimethoxybenzo[c]-2,7-naphthyridin-2-yl)pyridin-3-yl]oxy}methyl)-1-(3-fluorophenyl)imidazolidin-2-one] was tested, and the IC50 (PDK-1; [1]) was 206 nM, the IC50 (PKA; 20 μM ATP) was greater than 4000 nM and the IC50 (PKA; 100 μM ATP) was greater than 2000 nM. It also gave an IC50 (S6K) of no less than 1740 nM.

`COc1cc2ncc3c(N)nc(-c4cncc(OC[C@@H](N)Cc5ccc(NC(=O)OCc6ccccc6)cc5)c4)cc3c2cc1OC` [Ib-23] showed an IC50 (PDK-1; [1]) greater than 100 nM, an IC50 (PKA; 100 μM ATP) greater than 2000 nM and an IC50 (S6K) greater than 2000 nM.

With `COc1cc2ncc3c(N)nc(-c4cncc(OC[C@H](C)N)c4)cc3c2cc1OC` [Ib-31, 2-(5-{[(2S)-2-aminopropyl]oxy}pyridin-3-yl)-8,9-dimethoxybenzo[c]-2,7-naphthyridin-4-amine] the IC50 (PDK-1; [1]) was 6 nM and the IC50 (S6K) was 235 nM.

For `Nc1nc(-c2cncc(OC[C@@H](N)Cc3ccccc3)c2)cc2c1cnc1ccccc12` [Ia-3, 2-(5-{[(2S)-2-Amino-3-phenylpropyl]oxy}pyridin-3-yl)benzo[c]-2,7-naphthyridin-4-amine], the IC50 (PDK-1; [1]) was 104 nM, the IC50 (PKA; 20 μM ATP) was 300 nM and the IC50 (PKA; 100 μM ATP) was 911 nM. For the same molecule, the IC50 (S6K) was 1200 nM.

`COc1cc2ncc3c(N)nc(-c4cncc(OC[C@H](N)Cc5cccc(C(F)(F)F)c5)c4)cc3c2cc1OC` [Ib-28, 2-[5-({(2R)-2-amino-3-[3-(trifluoromethyl)phenyl]propyl}oxy)pyridin-3-yl]-8,9-dimethoxybenzo[c]-2,7-naphthyridin-4-amine] showed an IC50 (PDK-1; [1]) of 21 nM and an IC50 (S6K) of 763 nM.

`COCCN(C[C@H](N)COc1cncc(-c2cc3c(cnc4cc(OC)c(OC)cc43)c(N)n2)c1)c1ccccc1` [Ib-34, (2S)-3-{[5-(4-amino-8,9-dimethoxybenzo[c]-2,7-naphthyridin-2-yl)pyridin-3-yl]oxy}-N1-(2-methoxyethyl)-N1-phenylpropane-1,2-diamine] showed an IC50 (PDK-1; [1]) of 6 nM, an IC50 (PKA; 20 μM ATP) of less than 32 nM and an IC50 (PKA; 100 μM ATP) of 116 nM. It also gave an IC50 (S6K) of 61 to 130 nM.

Molecule `COCCOc1cc2ncc3c(N)nc(-c4cccnc4)cc3c2cc1OC` [Ia-2, 9-Methoxy-8-(2-methoxyethoxy)-2-pyridin-3-ylbenzo[c]-2,7-naphthyridin-4-amine] has an IC50 (PDK-1) of 43 nM, an IC50 (PKA; 100 μM ATP) greater than 2000 nM and an IC50 (S6K) of 542 nM.

For `COc1cc2ncc3c(N)nc(-c4cncc(OC5CCNCC5)c4)cc3c2cc1OC` [Ib-40, 8,9-Dimethoxy-2-[5-(piperidin-4-yloxy)pyridin-3-yl]benzo[c]-2,7-naphthyridin-4-amine], the IC50 (PDK-1; [1]) was 117 nM, the IC50 (PKA; 20 μM ATP) was greater than 4000 nM and the IC50 (PKA; 100 μM ATP) was greater than 2000 nM. The IC50 (S6K) was greater than 2000 nM.

`COc1cc2ncc3c(N)nc(-c4cncc(C#CCN(C)Cc5ccccc5)c4)cc3c2cc1OC` [Ib-32, 2-(5-{3-[Benzyl(methyl)amino]prop-1-yn-1-yl}pyridin-3-yl)-8,9-dimethoxybenzo[c]-2,7-naphthyridin-4-amine] showed an IC50 (PDK-1; [1]) of 850 nM, an IC50 (PKA; 100 μM ATP) greater than 2000 nM and an IC50 (S6K) greater than 2000 nM.

`COc1cc2ncc3c(N)nc(-c4cncc(O[C@H]5CCCNC5)c4)cc3c2cc1OC` [Ib-39, 8,9-dimethoxy-2-{5-[(3S)-piperidin-3-yloxy]pyridin-3-yl}benzo[c]-2,7-naphthyridin-4-amine] showed an IC50 (PDK-1; [1]) of 84 nM, an IC50 (PKA; 20 μM ATP) greater than 4000 nM and an IC50 (PKA; 100 μM ATP) greater than 2000 nM. The IC50 (S6K) was no less than 1700 nM.

With `COc1cc2ncc3c(N)nc(-c4cncc(OC[C@@H](N)Cc5ccc(F)cc5)c4)cc3c2cc1OC` [Ib-41, 2-(5-{[(2S)-2-amino-3-(4-fluorophenyl)propyl]oxy}pyridin-3-yl)-8,9-dimethoxybenzo[c]-2,7-naphthyridin-4-amine] the IC50 (PDK-1; [1]) was 3 nM, the IC50 (PKA; 20 μM ATP) was less than 32 nM and the IC50 (PKA; 100 μM ATP) was 183 nM. For the same molecule, the IC50 (S6K) was 21 to 102 nM.

`Nc1nc(-c2cncc(OC[C@@H](N)Cc3ccccc3)c2)cc2c1cnc1cc(/C=C/CCN3CCCC3)ccc12` [Ia-4, 2-(5-{[(2S)-2-amino-3-phenylpropyl]oxy}pyridin-3-yl)-8-[(1E)-4-pyrrolidin-1-ylbut-1-en-1-yl]benzo[c]-2,7-naphthyridin-4-amine] gave an IC50 (PDK-1; [1]) of 27 nM, an IC50 (PKA; 20 μM ATP) of less than 32 nM and an IC50 (PKA; 100 μM ATP) of 70 nM. The IC50 (S6K) was 89 nM.
